Here are results for 10 molecules from ChEMBL document CHEMBL2074120, “Hepatic uptake of bilirubin and its conjugates by the human organic anion transporter SLC21A6” (J Biol Chem, 2001).

Bounds are passed on as bounds.

Holding throughout (assay type): functional, cell-based
Data set [1] concerns the target T1, Solute carrier organic anion transporter family member 1B3 (Homo sapiens, UniProt Q9NPD5).
T1 sequence (Q9NPD5 whole entry): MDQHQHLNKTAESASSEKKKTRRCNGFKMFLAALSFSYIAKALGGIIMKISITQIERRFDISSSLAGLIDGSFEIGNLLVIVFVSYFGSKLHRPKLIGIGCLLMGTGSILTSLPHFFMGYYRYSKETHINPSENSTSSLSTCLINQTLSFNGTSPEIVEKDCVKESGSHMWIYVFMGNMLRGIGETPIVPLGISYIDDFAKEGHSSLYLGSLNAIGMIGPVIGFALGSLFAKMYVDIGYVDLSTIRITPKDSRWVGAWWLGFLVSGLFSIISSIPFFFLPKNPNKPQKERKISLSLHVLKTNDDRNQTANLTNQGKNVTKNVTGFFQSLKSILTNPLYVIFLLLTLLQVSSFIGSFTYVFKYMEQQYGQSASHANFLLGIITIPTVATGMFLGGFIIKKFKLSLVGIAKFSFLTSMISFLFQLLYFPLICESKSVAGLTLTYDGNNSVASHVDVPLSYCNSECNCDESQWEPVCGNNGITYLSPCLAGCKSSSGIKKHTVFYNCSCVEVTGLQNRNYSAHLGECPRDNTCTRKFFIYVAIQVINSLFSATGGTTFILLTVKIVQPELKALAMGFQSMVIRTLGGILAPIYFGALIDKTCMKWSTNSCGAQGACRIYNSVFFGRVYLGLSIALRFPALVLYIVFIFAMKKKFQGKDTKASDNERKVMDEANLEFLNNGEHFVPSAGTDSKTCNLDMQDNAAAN
The data set can be described thus: (§1) TP_TRANSPORTER: uptake in OATP8-expressing HEK293 cells. The note with it: hek293.

The next data set has as its target T2, OATP8 (OATP1B3, SLCO1B3) (Homo sapiens, UniProt Q9NPD5).
T2 sequence (Q9NPD5 whole entry): T1 sequence (Q9NPD5 whole entry)
The description is as §1. The note with it: HEK293 cells expressing OATP8.

Data set [2] deals with T3, Solute carrier organic anion transporter family member 1B1 (Homo sapiens, UniProt Q9Y6L6).
T3 sequence (Q9Y6L6 whole entry): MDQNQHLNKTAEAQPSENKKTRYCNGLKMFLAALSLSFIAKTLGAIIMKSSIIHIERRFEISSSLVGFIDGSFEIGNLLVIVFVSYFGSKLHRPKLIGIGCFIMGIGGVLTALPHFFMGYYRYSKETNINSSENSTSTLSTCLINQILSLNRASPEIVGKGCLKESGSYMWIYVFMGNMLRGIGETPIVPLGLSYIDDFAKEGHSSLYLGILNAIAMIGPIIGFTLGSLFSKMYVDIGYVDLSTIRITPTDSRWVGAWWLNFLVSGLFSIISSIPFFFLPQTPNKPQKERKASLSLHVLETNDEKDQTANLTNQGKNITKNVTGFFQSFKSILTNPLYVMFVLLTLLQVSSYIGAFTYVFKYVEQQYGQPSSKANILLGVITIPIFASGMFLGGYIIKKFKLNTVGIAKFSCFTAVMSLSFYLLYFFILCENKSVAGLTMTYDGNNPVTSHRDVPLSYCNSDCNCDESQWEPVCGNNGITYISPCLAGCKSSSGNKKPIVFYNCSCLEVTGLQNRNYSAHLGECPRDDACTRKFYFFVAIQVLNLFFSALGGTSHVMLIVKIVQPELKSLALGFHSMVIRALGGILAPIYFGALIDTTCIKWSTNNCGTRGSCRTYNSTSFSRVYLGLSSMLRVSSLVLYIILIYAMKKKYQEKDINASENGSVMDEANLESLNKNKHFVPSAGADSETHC
Put plainly: (§2) TP_TRANSPORTER: uptake in OATP-C-expressing HEK293 cells.

Data set [3] concerns the target T3, Solute carrier organic anion transporter family member 1B1. The data set can be described thus: TP_TRANSPORTER: inhibition of E217betaG uptake (E217betaG: 2 uM, ICG: 10 uM) in OATP-C-expressing HEK293 cells. Conditions: hek293, 10 µM.
The target of data set [4] is T1, Solute carrier organic anion transporter family member 1B3. The data set can be described thus: TP_TRANSPORTER: inhibition of E217betaG uptake (E217betaG: 2 uM, ICG: 10 uM) in OATP8-expressing HEK293 cells. The note with it: hek293, 10 µM.
In data set [5] the target is T3, Solute carrier organic anion transporter family member 1B1. The data set can be described thus: TP_TRANSPORTER: inhibition of E217betaG uptake (E217betaG: 2 uM, Rifampicin: 75 uM) in OATP-C-expressing HEK293 cells. The note with it: hek293, 75 µM.
Data set [6] deals with T1, Solute carrier organic anion transporter family member 1B3. The data set can be described thus: TP_TRANSPORTER: inhibition of E217betaG uptake (E217betaG: 2 uM, Rifampicin: 75 uM) in OATP8-expressing HEK293 cells. Conditions: hek293, 75 µM.
Data set [7] shares this target. The data set can be described thus: TP_TRANSPORTER: inhibition of E217betaG uptake (E217betaG: 2 uM, Rifamycin SV: 50 uM) in OATP8-expressing HEK293 cells. The note with it: hek293, 50 µM.
In data set [8] the target is T3, Solute carrier organic anion transporter family member 1B1. Put plainly: TP_TRANSPORTER: inhibition of E217betaG uptake (E217betaG: 2 uM, Rifamycin SV: 50 uM) in OATP-C-expressing HEK293 cells. The note with it: hek293, 50 µM.
Data set [9] shares this target. The data set can be described thus: TP_TRANSPORTER: inhibition of Bilirubin uptake (Bilirubin: 10 uM, BSP: 5 uM) in OATP-C-expressing HEK293 cells. The note with it: hek293, 5 µM.
Substrate in data set [10]: [H][C@@]12CC=C3C[C@@H](OS(=O)(=O)O)CC[C@]3(C)[C@@]1([H])CC[C@]1(C)C(=O)CC[C@@]21[H]
The description is as §2.

Substrate in data set [11]: O=C1OC(c2ccc(O)c(S(=O)(=O)O)c2)(c2ccc(O)c(S(=O)(=O)O)c2)c2c(Br)c(Br)c(Br)c(Br)c21
The description is as §2.

Substrate in data set [12]: C=CC1=C(C)/C(=C/c2[nH]c(Cc3[nH]c(/C=C4\NC(=O)C(C)=C4C=C)c(C)c3CCC(=O)O[C@@H]3O[C@@H](C(=O)O)[C@H](O)[C@@H](O)[C@@H]3O)c(CCC(=O)O[C@@H]3O[C@H](C(=O)O)[C@H](O)[C@H](O)[C@@H]3O)c2C)NC1=O
The data set is described as §2.

Substrate in data set [13]: C[C@]12CC[C@@H]3c4ccc(OS(=O)(=O)O)cc4CC[C@H]3[C@@H]1CCC2=O
The data set is described as §2.

Substrate in data set [14]: C=CC1=C(C)/C(=C/c2[nH]c(Cc3[nH]c(/C=C4\NC(=O)C(C)=C4C=C)c(C)c3CCC(=O)O[C@@H]3OC(C(=O)O)[C@@H](O)C(O)C3O)c(CCC(=O)O)c2C)NC1=O
Described as §2.

As to `C=CC1=C(C)/C(=C/c2[nH]c(Cc3[nH]c(/C=C4\NC(=O)C(C)=C4C=C)c(C)c3CCC(=O)O[C@@H]3O[C@@H](C(=O)O)[C@H](O)[C@@H](O)[C@@H]3O)c(CCC(=O)O[C@@H]3O[C@H](C(=O)O)[C@H](O)[C@H](O)[C@@H]3O)c2C)NC1=O`, the Activity entry in data set [1] was “is not a substrate [-]”.

For `C=CC1=C(C)/C(=C/c2[nH]c(Cc3[nH]c(/C=C4\NC(=O)C(C)=C4C=C)c(C)c3CCC(=O)O[C@@H]3OC(C(=O)O)[C@@H](O)C(O)C3O)c(CCC(=O)O)c2C)NC1=O` (some centres not stated) [BILIRUBIN MONOGLUCURONIDE], the Km on OATP8 (OATP1B3, SLCO1B3) was found to be 0.5 µM. `C=CC1=C(C)/C(=C/c2[nH]c(Cc3[nH]c(/C=C4\NC(=O)C(C)=C4C=C)c(C)c3CCC(=O)O)c(CCC(=O)O)c2C)NC1=O` [BILIRUBIN]: in [2], the Activity result was “substrate [+]”. In the case of `C[C@]12CC[C@@H]3c4ccc(OS(=O)(=O)O)cc4CC[C@H]3[C@@H]1CCC2=O` [ESTRONE SULFURIC ACID], the Activity entry in data set [1] was “is not a substrate [-]”. Regarding `CC1(C)C(/C=C/C=C/C=C/C=C2/N(CCCCS(=O)(=O)[O-])c3ccc4ccccc4c3C2(C)C)=[N+](CCCCS(=O)(=O)[O-])c2ccc3ccccc3c21.[Na+]` [INDOCYANINE GREEN], the Activity result in [3] is “inhibitor [(at a rough estimate) 5 % of control]”; in data set [4] it was “is not an inhibitor [-]”. Consider `C[C@]12CC[C@H](OS(=O)(=O)O)CC1=CC[C@@H]1[C@@H]2CC[C@]2(C)C(=O)CC[C@@H]12` [PRASTERONE SULFURIC ACID], for which the Km at OATP8 (OATP1B3, SLCO1B3) was more than 30 µM. With `CO[C@H]1/C=C/O[C@@]2(C)Oc3c(C)c(O)c4c(O)c(c(/C=N/N5CCN(C)CC5)c(O)c4c3C2=O)NC(=O)/C(C)=C\C=C\[C@H](C)[C@H](O)[C@@H](C)[C@@H](O)[C@@H](C)[C@H](OC(C)=O)[C@@H]1C` [RIFAMPIN], the figures for the Activity result in data set [5] and in data set [6] were “inhibitor [(at a rough estimate) 20 % of control]” and “inhibitor [(at a rough estimate) 10 % of control]”, respectively. Turning to `CO[C@H]1/C=C/O[C@@]2(C)Oc3c(C)c(O)c4c(O)c(cc(O)c4c3C2=O)NC(=O)/C(C)=C\C=C\[C@H](C)[C@H](O)[C@@H](C)[C@@H](O)[C@@H](C)[C@H](OC(C)=O)[C@@H]1C` [RIFAMYCIN], the Activity entry is “inhibitor [(at a rough estimate) 35 % of control]” in [7] and “inhibitor [(at a rough estimate) 20 % of control]” in data set [8]. Regarding `O=C1OC(c2ccc(O)c(S(=O)(=O)[O-])c2)(c2ccc(O)c(S(=O)(=O)[O-])c2)c2c(Br)c(Br)c(Br)c(Br)c21.[Na+].[Na+]` [SULFOBROMOPHTHALEIN SODIUM], in [9], the Activity entry was “inhibitor [(at a rough estimate) 15 % of control]”.

B1: Solute carrier organic anion transporter family member 1B1 (Homo sapiens) (protein)
chain: T3 sequence (Q9Y6L6 whole entry)
As to B1, the Km in data set [10] was 21.5 µM; in data set [11] it was 0.14 µM; in data set [12], 0.28 µM; in data set [13], 12.5 µM; in [14], 0.1 µM.
